# Species: Rattus norvegicus
# Assay: Open TG-GATES - Regimen: Daily Repeat
# Type: toxicity, organism-based, Sprague-Dawley
# Set-up: regimen Daily Repeat, gender Male, age 6 weeks
# Conditions: in vivo, po, 0 mg/kg, route gavage, dose level Control; for APTT / Bas / Eos / Fbg / Hb / Ht / Lym / MCH / MCHC / MCV / Mono / Neu / PT / Plat / RBC / Ret / WBC: tissue Blood; for KIDNEY_L / KIDNEY_R / KIDNEY_TOTAL: tissue Kidney; for LIVER: tissue Liver; for A/G / ALP / ALT / AST / BUN / CRE / Ca / Cl / DBIL / GLC / IP / K / LDH / Na / PL / RALB / TBIL / TC / TG / TP / gamma-GTP: tissue Plasma
compound,measurement,setting,value
Nc1c2c(nc3ccccc13)CCCC2 [TACRINE],TERMINAL_BW,"72 h, time 3 day",222.7 g
same,APTT,"72 h, time 3 day",21.1 s
same,Bas,"72 h, time 3 day",0%
same,Eos,"72 h, time 3 day",1.2%
same,Fbg,"72 h, time 3 day",304 mg/dL
same,Hb,"72 h, time 3 day",13.6 g/dL
same,Ht,"72 h, time 3 day",38.7%
same,Lym,"72 h, time 3 day",80%
same,MCH,"72 h, time 3 day",21.1 pg
same,MCHC,"72 h, time 3 day",35%
same,MCV,"72 h, time 3 day",60.4 fL
same,Mono,"72 h, time 3 day",3%
same,Neu,"72 h, time 3 day",14.8%
same,PT,"72 h, time 3 day",16.8 s
same,Plat,"72 h, time 3 day",125.8 x10_4/uL
same,RBC,"72 h, time 3 day",641.8 x10_4/ul
same,Ret,"72 h, time 3 day",6.4%
same,WBC,"72 h, time 3 day",108.4 x10_2/uL
same,KIDNEY_L,"72 h, time 3 day",0.9 g
same,KIDNEY_R,"72 h, time 3 day",1 g
same,KIDNEY_TOTAL,"72 h, time 3 day",1.9 g
same,LIVER,"72 h, time 3 day",10.2 g
same,A/G,"72 h, time 3 day",1.3
same,ALP,"72 h, time 3 day",1665.8 IU/L
same,ALT,"72 h, time 3 day",51.6 IU/L
same,AST,"72 h, time 3 day",79 IU/L
same,BUN,"72 h, time 3 day",17.4 mg/dL
same,CRE,"72 h, time 3 day",0.2 mg/dL
same,Ca,"72 h, time 3 day",10.9 mg/dL
same,Cl,"72 h, time 3 day",107.2 meq/L
same,DBIL,"72 h, time 3 day",0.002 mg/dL
same,GLC,"72 h, time 3 day",200.2 mg/dL
same,IP,"72 h, time 3 day",7.4 mg/dL
same,K,"72 h, time 3 day",4.4 meq/L
same,LDH,"72 h, time 3 day",264 IU/L
same,Na,"72 h, time 3 day",142.8 meq/L
same,PL,"72 h, time 3 day",158.4 mg/dL
same,RALB,"72 h, time 3 day",3.1 g/dL
same,TBIL,"72 h, time 3 day",0.01 mg/dL
same,TC,"72 h, time 3 day",72.8 mg/dL
same,TG,"72 h, time 3 day",132.8 mg/dL
same,TP,"72 h, time 3 day",5.6 g/dL
same,gamma-GTP,"72 h, time 3 day",1 IU/L
same,TERMINAL_BW,"[…], time 7 day",252.2 g
same,TERMINAL_BW,"[…], time 14 day",300.3 g
same,TERMINAL_BW,"[…], time 28 day",378.9 g
same,APTT,"[…], time 7 day",21.6 s
same,Bas,"[…], time 7 day",0%
same,Eos,"[…], time 7 day",1%
same,Fbg,"[…], time 7 day",289 mg/dL
same,Hb,"[…], time 7 day",13.5 g/dL
same,Ht,"[…], time 7 day",38.4%
same,Lym,"[…], time 7 day",85%
same,MCH,"[…], time 7 day",21.2 pg
same,MCHC,"[…], time 7 day",35.2%
same,MCV,"[…], time 7 day",60.1 fL
same,Mono,"[…], time 7 day",2.2%
same,Neu,"[…], time 7 day",11%
same,PT,"[…], time 7 day",16.3 s
same,Plat,"[…], time 7 day",122.6 x10_4/uL
same,RBC,"[…], time 7 day",639.4 x10_4/ul
same,Ret,"[…], time 7 day",5.5%
same,WBC,"[…], time 7 day",142.5 x10_2/uL
same,APTT,"[…], time 14 day",23 s
same,Bas,"[…], time 14 day",0%
same,Eos,"[…], time 14 day",0.8%
same,Fbg,"[…], time 14 day",323 mg/dL
same,Hb,"[…], time 14 day",15.4 g/dL
same,Ht,"[…], time 14 day",42.9%
same,Lym,"[…], time 14 day",79.6%
same,MCH,"[…], time 14 day",21.2 pg
same,MCHC,"[…], time 14 day",36%
same,MCV,"[…], time 14 day",58.8 fL
same,Mono,"[…], time 14 day",2.6%
same,Neu,"[…], time 14 day",16.4%
same,PT,"[…], time 14 day",15.6 s
same,Plat,"[…], time 14 day",117.8 x10_4/uL
same,RBC,"[…], time 14 day",728.8 x10_4/ul
same,Ret,"[…], time 14 day",4%
same,WBC,"[…], time 14 day",91.1 x10_2/uL
same,APTT,"[…], time 28 day",23.1 s
same,Bas,"[…], time 28 day",0%
same,Eos,"[…], time 28 day",1%
same,Fbg,"[…], time 28 day",321 mg/dL
same,Hb,"[…], time 28 day",15.6 g/dL
same,Ht,"[…], time 28 day",41.5%
same,Lym,"[…], time 28 day",83.4%
same,MCH,"[…], time 28 day",20.8 pg
same,MCHC,"[…], time 28 day",37.6%
same,MCV,"[…], time 28 day",55.3 fL
same,Mono,"[…], time 28 day",1.6%
same,Neu,"[…], time 28 day",13%
same,PT,"[…], time 28 day",16 s
same,Plat,"[…], time 28 day",115 x10_4/uL
same,RBC,"[…], time 28 day",752 x10_4/ul
same,Ret,"[…], time 28 day",2.9%
same,WBC,"[…], time 28 day",108.3 x10_2/uL
same,KIDNEY_L,"[…], time 7 day",1.1 g
same,KIDNEY_R,"[…], time 7 day",1.1 g
same,KIDNEY_TOTAL,"[…], time 7 day",2.1 g
same,KIDNEY_L,"[…], time 14 day",1.2 g
same,KIDNEY_R,"[…], time 14 day",1.2 g
same,KIDNEY_TOTAL,"[…], time 14 day",2.3 g
same,KIDNEY_L,"[…], time 28 day",1.4 g
same,KIDNEY_R,"[…], time 28 day",1.4 g
same,KIDNEY_TOTAL,"[…], time 28 day",2.9 g
same,LIVER,"[…], time 7 day",11.2 g
same,LIVER,"[…], time 14 day",12.4 g
same,LIVER,"[…], time 28 day",15.5 g
same,A/G,"[…], time 7 day",1.2
same,ALP,"[…], time 7 day",1508 IU/L
same,ALT,"[…], time 7 day",36 IU/L
same,AST,"[…], time 7 day",67.6 IU/L
same,BUN,"[…], time 7 day",16.8 mg/dL
same,CRE,"[…], time 7 day",0.2 mg/dL
same,Ca,"[…], time 7 day",10.5 mg/dL
same,Cl,"[…], time 7 day",107.4 meq/L
same,DBIL,"[…], time 7 day",0 mg/dL
same,GLC,"[…], time 7 day",191.6 mg/dL
same,IP,"[…], time 7 day",7.1 mg/dL
same,K,"[…], time 7 day",4.2 meq/L
same,LDH,"[…], time 7 day",172.8 IU/L
same,Na,"[…], time 7 day",142 meq/L
same,PL,"[…], time 7 day",153.8 mg/dL
same,RALB,"[…], time 7 day",2.9 g/dL
same,TBIL,"[…], time 7 day",0.016 mg/dL
same,TC,"[…], time 7 day",77.6 mg/dL
same,TG,"[…], time 7 day",110 mg/dL
same,TP,"[…], time 7 day",5.4 g/dL
same,gamma-GTP,"[…], time 7 day",1 IU/L
same,A/G,"[…], time 14 day",1.3
same,ALP,"[…], time 14 day",1565.4 IU/L
same,ALT,"[…], time 14 day",40 IU/L
same,AST,"[…], time 14 day",72 IU/L
same,BUN,"[…], time 14 day",20.6 mg/dL
same,CRE,"[…], time 14 day",0.2 mg/dL
same,Ca,"[…], time 14 day",10.7 mg/dL
same,Cl,"[…], time 14 day",108 meq/L
same,DBIL,"[…], time 14 day",0 mg/dL
same,GLC,"[…], time 14 day",192.8 mg/dL
same,IP,"[…], time 14 day",6.3 mg/dL
same,K,"[…], time 14 day",4.1 meq/L
same,LDH,"[…], time 14 day",184.8 IU/L
same,Na,"[…], time 14 day",142.2 meq/L
same,PL,"[…], time 14 day",161.6 mg/dL
same,RALB,"[…], time 14 day",3.3 g/dL
same,TBIL,"[…], time 14 day",0.012 mg/dL
same,TC,"[…], time 14 day",81.8 mg/dL
same,TG,"[…], time 14 day",123.4 mg/dL
same,TP,"[…], time 14 day",6 g/dL
same,gamma-GTP,"[…], time 14 day",1.2 IU/L
same,A/G,"[…], time 28 day",1.1
same,ALP,"[…], time 28 day",1179.4 IU/L
same,ALT,"[…], time 28 day",38.6 IU/L
same,AST,"[…], time 28 day",61.6 IU/L
same,BUN,"[…], time 28 day",18.6 mg/dL
same,CRE,"[…], time 28 day",0.2 mg/dL
same,Ca,"[…], time 28 day",10.7 mg/dL
same,Cl,"[…], time 28 day",105.2 meq/L
same,DBIL,"[…], time 28 day",0 mg/dL
same,GLC,"[…], time 28 day",191.8 mg/dL
same,IP,"[…], time 28 day",5.9 mg/dL
same,K,"[…], time 28 day",4.1 meq/L
same,LDH,"[…], time 28 day",165.2 IU/L
same,Na,"[…], time 28 day",141.6 meq/L
same,PL,"[…], time 28 day",157.6 mg/dL
same,RALB,"[…], time 28 day",3.2 g/dL
same,TBIL,"[…], time 28 day",0.006 mg/dL
same,TC,"[…], time 28 day",75.4 mg/dL
same,TG,"[…], time 28 day",144.6 mg/dL
same,TP,"[…], time 28 day",6.2 g/dL
same,gamma-GTP,"[…], time 28 day",1 IU/L

# Source: ChEMBL document CHEMBL3885861, “Open TG-GATES”
